Test results published in patent US12642806B2, “Cannabidiol compositions for use in treating heart conditions” (CARDIOL THERAPEUTICS INC., priority 2019, dated 2026).

Legend:
[1] = system: mouse model of non-ischemic heart failure (HF); assay: Mouse model of non-ischemic heart failure (L-NAME/NaCl + Angiotensin II); type: in vivo, C57BL/6 laboratory mice; details: for cardiac fibrosis (Masson's Trichrome) / myocyte area (hypertrophy): 4 weeks, vs Angiotensin group; for mRNA expression of BNP in heart tissue (qPCR): compared with ANG group
Description: Tests were done to evaluate the potential for CBD in treating or preventing heart failure in a mouse model of non-ischemic heart failure (HF) illustrated in FIG. 5.
Three to four week old male C57BL/6 laboratory mice were used in the experiments. The mice were divided into four groups. A first group (the Control) received nothing. The second group of mice (Angiotensin) was provided with water containing 0.1 mg/ml of N(gamma)-nitro-L-arginine methyl ester (L-NAME) and 1% sodium chloride (NaCl) ad libitum for one week. Following this, 0.7 mg/kg/week of Angiotensin II was administered subcutaneously for 4 weeks using osmotic pumps. The third group and fourth group were subjected to the same protocol as the second group, however, the third group (ANG+CBD 1 mg/kg) and fourth group (ANG+CBD 10 mg/kg) also received synthetic CBD subcutaneously in an amount of 1 mg/kg and 10 mg/kg, respectively, once every 3 days during the same four week period. The CBD compositions used in this experiment consisted of CBD dissolved in PEG400.
After four weeks of treatment, cardiac tissue was evaluated for fibrosis and myocyte hypertrophy and changes in remodeling and inflammation biomarkers.

[2] = taken orally; background statement; cited from earlier work
H9c2 cells [3] = assay: Repeated H9c2 hypertrophy study: BNP and collagen mRNA, mitochondrial ROS (MitoSOX); type: cell-based
Description: The study was repeated using H9c2 cells grown in a culture medium divided into seven groups. To one group nothing was added (“CTRL”). To the second, fourth, fifth, sixth, and seventh groups, Angiotensin II was added to the culture medium (“ANG”) to give a final concentration of 1.0 μM. The Angiotensin II was added to induce hypertrophy. To the third group, CBD was added to give a concentration of 0.1 μM (“CBD 0.1 μM”) as an additional control group. CBD was also added to (a) the fourth group to give a concentration of 0.001 μM (“ANG+CBD 0.001 μM”), (b) the fifth group to give a concentration of 0.01 μM (“ANG+CBD 0.01 μM”), (c) the sixth group to give a concentration of 0.1 μM (“ANG+CBD 0.1 μM”), and, finally, (d) the seventh group to give a concentration of 1 μM (“ANG+CBD 1 μM”).

human monocytes = assay: CD69 expression by ionomycin/PMA-activated human monocytes (flow cytometry); type: cell-based; details: CBD 5 μg/mL or greater, added 15 minutes before 4 hours stimulation with ionomycin 1 μg/ml and PMA 50 ng/ml
Description: (§1) A further study was performed to determine the effect of CBD on the expression of CD69 (a marker of leukocyte activation) by human lymphocytes and monocytes that had been activated by ionomycin (1 μg/mL) and phorbol myristate acetate (PMA, 50 ng/mL) in vitro.
(§2) Mononuclear cells from a healthy human donor were isolated using a gradient method with Ficoll-Pacque™ Healthcare. Cells were washed with RPMI media with 10% FCS and 1% Penn/Strept and then placed in 12 well trays at 1×10^6 cells/mL and stimulated for 4 hours with Ionomycin 1 μg/ml and 50 ng/ml PMA. CBD was added 15 minutes before using DMSO as a vehicle. After the stimulation, cells were washed again and resuspended in 150 μL staining buffer (PBS+1% BSA). An optimized protocol for surface marker staining was used. CD69 was added to the cells, which were then incubated for 15 minutes in the dark at room temperature. After this, cells were washed twice with PBS+1% BSA and resuspended in 150 μL buffer. Cells were kept at 4 degrees prior to being analyzed in a FACSCanto™ II cytometer. Cell populations were determined by FSC/SSC. The number of events were at least 2000 events per gate. […] The data was analyzed with FlowJo X. Doublets were discriminated with an exclusion gate of FSC-A/FSC-W. Gating for lymphocytes and monocytes was determined by FSC-A/SSC-A. The frequency and expression of CD69-FITC was analyzed in its FITC channel.

H9c2 cells [4] = assay: Angiotensin II-mediated cardiomyocyte hypertrophy in H9c2 cells, cell surface area (calcein, confocal microscopy); type: cell-based; details: compared with Ang group
Description: A study was conducted to determine the effect of CBD in a model of cardiomyocyte hypertrophy, using H9c2 cells, a cardiomyocyte cell line, in vitro. In this study, H9c2 cells grown in a culture medium were divided into four groups. To one group nothing was added (“Control”). To the second, third and fourth groups, Angiotensin II was added to the culture medium (“Ang”) to give a final concentration of 1.0 μM. The Angiotensin II was added to induce hypertrophy. To the third group, CBD was also added to give a concentration of 0.1 μM (“Ang+CBD 0.1 μM”). Finally, to the fourth group, CBD was also added to give a concentration of 1 μM (“Ang+CBD 1 μM”).
FIG. 1 contains representative confocal microscopy images of the H9c2 cells in each group. The images were obtained using a model with the same parameters and cell staining, to determine the surface area per cell, was achieved using calcein fluorescent dye. […] The results are summarized in FIG. 2, wherein each group comprises at least 3 independent replicates per group.

human lymphocytes = assay: CD69 expression by ionomycin/PMA-activated human lymphocytes (flow cytometry); type: cell-based; details: CBD 5 μg/mL or greater, added 15 minutes before 4 hours stimulation with ionomycin 1 μg/ml and PMA 50 ng/ml
Description: as §1, §2

CB2 receptor [5] = target: T1, CB2 receptor (Homo sapiens, UniProt P34972); details: literature (Proc Natl Acad Sci USA 2008); cited from earlier work
T1 sequence (P34972 whole entry): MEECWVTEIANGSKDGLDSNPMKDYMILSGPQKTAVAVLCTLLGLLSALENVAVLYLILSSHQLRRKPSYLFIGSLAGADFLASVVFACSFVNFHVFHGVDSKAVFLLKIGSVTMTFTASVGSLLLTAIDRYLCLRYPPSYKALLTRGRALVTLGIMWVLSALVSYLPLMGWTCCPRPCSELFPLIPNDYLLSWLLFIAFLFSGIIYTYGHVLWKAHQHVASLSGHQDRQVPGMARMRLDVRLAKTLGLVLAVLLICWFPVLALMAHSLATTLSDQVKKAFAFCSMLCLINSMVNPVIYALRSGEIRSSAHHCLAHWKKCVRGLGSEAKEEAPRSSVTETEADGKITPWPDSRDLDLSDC

CB2 receptor [6] = target: T1, CB2 receptor; details: literature (Proc Natl Acad Sci USA 2008); cited from earlier work; remark: listed apart in the source
[7] = CBD 1 mg/kg body weight subcutaneously
[8] = CBD 1 mg/kg subcutaneously once every 3 days
[9] = CBD 10 mg/kg subcutaneously once every 3 days
[10] = ANG+CBD 1 μM compared to ANG group
[11] = Angiotensin II 1.0 μM + CBD 0.001, 0.01, 0.1, 1 μM

In the case of `C=C(C)[C@@H]1CCC(C)=C[C@H]1c1c(O)cc(CCCCC)cc1O` [CBD, cannabidiol], the “mRNA expression of IL10” value [1, 7] was “significantly increased”, the “mRNA expression of pro-inflammatory cytokine IL6” value [1, 7] was “significantly decreased” and the “cardiac fibrosis (Masson's Trichrome)” value [1, 8] was “effective to reduce”. The “myocyte area (hypertrophy)” value [1, 8] was “effective to reduce”, the “mRNA expression of BNP in heart tissue (qPCR)” value ([1]; CBD 1 mg/kg subcutaneously) was “significant reduction” and the “mRNA expression of pro-inflammatory cytokine IL6” value ([1]; CBD 10 mg/kg body weight subcutaneously) was “significantly decreased”. The “cardiac fibrosis (Masson's Trichrome)” value [1, 9] was “effective to reduce”, the “myocyte area (hypertrophy)” value [1, 9] was “effective to reduce” and the “mRNA expression of BNP in heart tissue (qPCR)” value ([1]; CBD 10 mg/kg subcutaneously) was “significant reduction”. The “mRNA expression of pro-inflammatory cytokine IL1β” value ([1]; CBD subcutaneously, dose not given) was “trend to be reduced to control levels”, the overall bioavailability [2] was “less than 10%” and the “mRNA level of expression of collagen” value (H9c2 cells [3]; ANG+CBD 0.1 μM compared to ANG group) was “significantly reduced”. For the same molecule, the “mRNA level of expression of BNP” value (H9c2 cells [3]; [10]) was “significantly reduced”, the “mRNA level of expression of collagen” value (H9c2 cells [3]; [10]) was “significantly reduced” and the “mRNA level of expression of BNP” value (H9c2 cells [3]; [11]) was “dose-dependent reduction”. The “mRNA level of expression of collagen” value (H9c2 cells [3]; [11]) was “dose-dependent reduction”, the “Mitochondrial reactive oxygen species (ROS, MitoSOX)” value (H9c2 cells [3]; Angiotensin II 1.0 μM + CBD at different doses) was “reduced down to control levels” and the “level of expression of CD69 by monocytes” value (human monocytes) was “reduced the level of expression of CD69”. For the same molecule, the “cell surface area of H9c2 cells” value (H9c2 cells [4]; Angiotensin II 1.0 μM + CBD 0.1 μM) was “significantly smaller”, the “cell surface area of H9c2 cells” value (H9c2 cells [4]; Angiotensin II 1.0 μM + CBD 1 μM) was “significantly smaller” and the “level of expression of CD69 by lymphocytes” value (human lymphocytes) was “reduced the level of expression of CD69”.

For `C=C1CC/C=C(\C)CC[C@@H]2[C@@H]1CC2(C)C` [β-caryophyllene, trans-(1R,9S)-8-Methylene-4,11,11-trimethylbicyclo[7.2.0]undec-4-ene], the “functional activity at CB2” value (CB2 receptor [5]) is given as “functional CB2 agonist” and the “binding to the CB2 receptor” value (CB2 receptor [6]) is given as “selectively binds to the CB2 receptor”.
